Measured values as given in US12139477B2, “Compounds, salts thereof and methods for treatment of diseases” (ACADIA PHARMACEUTICALS INC., priority 2017, dated 2024).

Key:
[1] = target: T1, Nav1.5 sodium ion channel (alpha subunit) (Homo sapiens, UniProt Q14524); assay: NaV1.5 whole cell recordings, HEK293 (AVIVA; for ACP-201, ACP-203 and ACP-204); type: cell-based; conditions: manual patch clamp; step to 0 mV; AVIVA method for ACP-201, ACP-203, ACP-204; read-out: NaV 1.5 IC50
T1 construct: host or cells: HEK293 cells
Method: NaV1.5 methods (for ACP-201, ACP-203 and ACP-204): These experiments were carried out at AVIVA Biosciences Corporation, 6330 Nancy Ridge Drive, Suite 103, San Diego, CA 92121.
Cells: HEK293 cells transfected with Nav1.5 sodium ion channel (alpha subunit) were selected for this study. Cells were cultured in DMEM/F12 containing 10% FBS, 500 μg/mL G418 and 1% penicillin/streptomycin. Trypsin (0.05%) was utilized for cell harvesting.
External Solution: 90 mM NaCl; 50 mM TEA; 10 mM HEPES; 10 mM glucose; 4 mM KCl; 2 mM CaCl2); 305-315 mOsm; pH 7.4 (adjusted with 5M NaOH).
Internal Solution: 140 mM CsF; 10 mM NaCl; 1 mM MgCl2; 10 mM HEPES; 5 mM EGTA; 295-305 mOsm; pH 7.4 (adjusted with 1M NaOH).
Electrophysiology: All whole cell recordings were performed using PX 7000A (Axon Instruments) with AVIVA's […] technology. To achieve stable recordings, cells were voltage clamped at a holding potential 20 mV more negative than steady state half inactivation potential (Vh=V1/2−20 mV). V1/2 was determined by a pre-step from −130 mV to −40 MV for 1000 ms followed by a −10 mV step. V1/2 was determined independently for each cell to correct for both electrode potential and liquid junction potential offsets.
Test Article Handling and Dilutions: All test articles were prepared from 10 mM DMSO stock solutions. Solutions were mixed by sonication for 20 min, followed by vigorous vortexing. Prior to testing, compounds were diluted to test concentrations in glass vials using External Solution. Dilutions were prepared no longer than 20 min prior to use.
Electrophysiology Procedures: After achieving whole cell configuration, cells were monitored for 90 s to assess stability and then washed with External Solution for 66 s. for each cell achieving whole-cell access, an IV curve and steady state inactivation curve was measured. […] Whole cell parameters were monitored throughout the recoding procedure and corrected for any possible access resistance or input capacitance change (whole-cell compensation). […]

[2] = target: hCav1.2/β2/α2δ channels (Homo sapiens, UniProt Q13936); assay: CaV1.2 manual patch clamp, CHO cells (CR-CLE); type: cell-based; conditions: manual patch clamp, room temperature, read-out: CaV 1.2 IC50
Sequence of hCav1.2/β2/α2δ channels (Q13936 whole entry): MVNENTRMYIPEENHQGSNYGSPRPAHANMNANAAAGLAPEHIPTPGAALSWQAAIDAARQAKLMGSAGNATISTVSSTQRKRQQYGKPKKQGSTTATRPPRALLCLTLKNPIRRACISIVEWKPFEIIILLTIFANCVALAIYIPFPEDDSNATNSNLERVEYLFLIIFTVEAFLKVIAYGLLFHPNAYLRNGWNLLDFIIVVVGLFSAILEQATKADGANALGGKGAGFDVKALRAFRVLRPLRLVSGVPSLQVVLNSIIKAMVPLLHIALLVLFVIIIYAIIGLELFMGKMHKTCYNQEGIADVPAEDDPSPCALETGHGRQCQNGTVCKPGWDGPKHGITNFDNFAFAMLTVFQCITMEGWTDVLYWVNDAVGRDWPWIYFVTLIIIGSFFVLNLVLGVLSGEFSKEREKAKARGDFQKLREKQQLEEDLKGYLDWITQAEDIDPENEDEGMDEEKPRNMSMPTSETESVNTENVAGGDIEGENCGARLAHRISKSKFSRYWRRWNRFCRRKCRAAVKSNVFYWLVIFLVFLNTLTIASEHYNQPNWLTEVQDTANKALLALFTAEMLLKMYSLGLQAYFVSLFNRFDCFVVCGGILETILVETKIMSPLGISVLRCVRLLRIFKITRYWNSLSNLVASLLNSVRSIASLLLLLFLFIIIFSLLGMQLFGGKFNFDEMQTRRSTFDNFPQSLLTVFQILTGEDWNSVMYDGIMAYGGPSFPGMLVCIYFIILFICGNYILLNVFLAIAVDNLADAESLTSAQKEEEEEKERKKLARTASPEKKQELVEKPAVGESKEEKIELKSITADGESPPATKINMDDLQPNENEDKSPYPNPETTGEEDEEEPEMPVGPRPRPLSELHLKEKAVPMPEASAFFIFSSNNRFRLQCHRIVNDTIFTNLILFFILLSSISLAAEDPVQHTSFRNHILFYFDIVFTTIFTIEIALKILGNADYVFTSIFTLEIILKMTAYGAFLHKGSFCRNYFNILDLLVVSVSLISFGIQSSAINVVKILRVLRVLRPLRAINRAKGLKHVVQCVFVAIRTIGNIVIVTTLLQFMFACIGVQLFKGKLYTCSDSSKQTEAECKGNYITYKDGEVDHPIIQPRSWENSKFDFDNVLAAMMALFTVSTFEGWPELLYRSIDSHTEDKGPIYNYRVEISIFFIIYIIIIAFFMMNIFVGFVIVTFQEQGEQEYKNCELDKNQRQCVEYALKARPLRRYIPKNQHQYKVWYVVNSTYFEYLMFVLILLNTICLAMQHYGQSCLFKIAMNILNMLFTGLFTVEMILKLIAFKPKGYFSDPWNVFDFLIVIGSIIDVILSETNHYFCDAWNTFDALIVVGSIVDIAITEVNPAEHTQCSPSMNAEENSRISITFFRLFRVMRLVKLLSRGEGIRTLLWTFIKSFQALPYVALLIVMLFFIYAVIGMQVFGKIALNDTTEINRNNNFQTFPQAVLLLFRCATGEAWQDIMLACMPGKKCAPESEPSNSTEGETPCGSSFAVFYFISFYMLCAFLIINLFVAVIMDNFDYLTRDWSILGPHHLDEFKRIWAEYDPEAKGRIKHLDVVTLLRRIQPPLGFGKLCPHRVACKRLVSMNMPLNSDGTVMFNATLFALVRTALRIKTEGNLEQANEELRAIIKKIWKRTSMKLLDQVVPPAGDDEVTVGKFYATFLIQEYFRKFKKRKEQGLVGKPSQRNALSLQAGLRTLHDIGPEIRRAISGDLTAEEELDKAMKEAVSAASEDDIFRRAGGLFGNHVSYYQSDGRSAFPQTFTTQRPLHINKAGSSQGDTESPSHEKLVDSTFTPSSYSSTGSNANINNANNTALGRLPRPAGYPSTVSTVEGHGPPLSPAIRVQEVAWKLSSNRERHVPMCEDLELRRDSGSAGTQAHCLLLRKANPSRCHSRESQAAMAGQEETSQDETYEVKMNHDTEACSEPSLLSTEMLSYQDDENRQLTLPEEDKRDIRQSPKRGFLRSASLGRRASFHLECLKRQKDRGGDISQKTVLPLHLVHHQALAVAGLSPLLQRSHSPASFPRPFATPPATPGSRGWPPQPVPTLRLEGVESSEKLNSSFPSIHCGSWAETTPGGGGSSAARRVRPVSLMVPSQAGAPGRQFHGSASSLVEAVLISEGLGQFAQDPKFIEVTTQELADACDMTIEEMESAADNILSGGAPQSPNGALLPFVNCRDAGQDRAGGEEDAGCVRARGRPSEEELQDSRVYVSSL
Sequence of hCav1.2/β2/α2δ channels (Q08289 whole entry partner): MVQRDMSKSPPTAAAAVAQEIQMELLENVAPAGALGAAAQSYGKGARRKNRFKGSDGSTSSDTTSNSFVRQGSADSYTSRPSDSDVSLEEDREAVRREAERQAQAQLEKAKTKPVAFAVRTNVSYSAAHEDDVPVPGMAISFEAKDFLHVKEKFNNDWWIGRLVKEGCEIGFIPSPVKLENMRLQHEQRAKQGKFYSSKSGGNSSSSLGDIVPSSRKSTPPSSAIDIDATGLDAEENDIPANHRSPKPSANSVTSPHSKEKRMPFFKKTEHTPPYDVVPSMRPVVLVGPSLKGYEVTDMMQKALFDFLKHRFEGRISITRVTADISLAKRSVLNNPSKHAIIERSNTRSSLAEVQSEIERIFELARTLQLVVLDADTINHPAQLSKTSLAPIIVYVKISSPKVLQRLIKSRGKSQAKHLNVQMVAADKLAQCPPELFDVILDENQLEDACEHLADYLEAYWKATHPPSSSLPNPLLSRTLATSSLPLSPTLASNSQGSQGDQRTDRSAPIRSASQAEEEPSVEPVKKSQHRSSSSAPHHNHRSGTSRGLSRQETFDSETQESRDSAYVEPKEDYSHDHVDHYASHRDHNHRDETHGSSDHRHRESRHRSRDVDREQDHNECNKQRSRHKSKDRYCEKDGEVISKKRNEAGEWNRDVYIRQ
Sequence of hCav1.2/β2/α2δ channels (P54289 25-956 partner limits assumed): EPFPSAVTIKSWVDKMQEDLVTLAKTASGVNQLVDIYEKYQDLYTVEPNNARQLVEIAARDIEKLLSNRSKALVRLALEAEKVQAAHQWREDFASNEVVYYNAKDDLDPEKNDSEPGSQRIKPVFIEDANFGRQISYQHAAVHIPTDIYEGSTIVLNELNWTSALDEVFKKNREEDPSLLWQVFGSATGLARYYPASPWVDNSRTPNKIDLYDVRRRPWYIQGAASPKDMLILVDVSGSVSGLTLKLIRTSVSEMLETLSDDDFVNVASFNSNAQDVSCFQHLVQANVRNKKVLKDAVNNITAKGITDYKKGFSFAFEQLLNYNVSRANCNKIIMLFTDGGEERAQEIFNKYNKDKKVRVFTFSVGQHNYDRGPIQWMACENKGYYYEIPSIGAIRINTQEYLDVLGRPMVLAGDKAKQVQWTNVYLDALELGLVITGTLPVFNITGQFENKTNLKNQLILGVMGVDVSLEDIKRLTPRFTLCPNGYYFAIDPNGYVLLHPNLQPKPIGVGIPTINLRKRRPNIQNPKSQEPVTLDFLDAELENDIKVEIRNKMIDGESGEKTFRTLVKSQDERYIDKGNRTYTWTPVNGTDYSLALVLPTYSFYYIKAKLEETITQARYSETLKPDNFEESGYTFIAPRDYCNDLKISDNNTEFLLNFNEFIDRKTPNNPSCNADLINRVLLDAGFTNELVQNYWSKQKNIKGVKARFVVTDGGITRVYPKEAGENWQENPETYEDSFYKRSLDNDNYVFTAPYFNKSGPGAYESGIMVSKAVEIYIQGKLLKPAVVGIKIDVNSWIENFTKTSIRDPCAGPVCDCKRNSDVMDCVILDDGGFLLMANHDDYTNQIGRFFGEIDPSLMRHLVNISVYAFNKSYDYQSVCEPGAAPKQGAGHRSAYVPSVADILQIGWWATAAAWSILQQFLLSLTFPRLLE
Sequence of hCav1.2/β2/α2δ channels (P54289 957-1103 partner limits assumed): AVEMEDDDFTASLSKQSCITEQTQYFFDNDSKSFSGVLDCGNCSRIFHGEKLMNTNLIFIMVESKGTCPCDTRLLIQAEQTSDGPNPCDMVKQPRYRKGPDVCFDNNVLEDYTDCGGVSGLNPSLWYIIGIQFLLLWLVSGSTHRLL
Source text: Stocks were maintained in cryogenic storage. […] Each culture dish was identified by a notation of channel name, passage number, and date.
Rationale for Selection of Ion Channel and Expression Systems: Reduction of ICa,L is associated with action potential shortening in atrial fibrillation (Van Wagoner, et al., Circ Res 85:428-436 (1999)) while augmentation of ICa,L current may produce action potential prolongation (Ahmmed, et al., Circ Res 86:558-570 (2000)) and early after depolarizations (January, et al., Circ Res 62:563-571 (1988)). ICa.L is produced by the combination of calcium channel subunits encoded by CACNA1C (α1-subunit), CACNB2 (β2-subunit) and CACNA2D1 (α2δ-subunit) cDNAs.
• Organism: Cricetulus griseus • Tissue: Ovary; transfected with human CACNA1C • (α1-subunit), CACNB2 (β2-subunit), and • CACNA2D1 (α2δ-subunit) cDNAs • Morphology: Epithelial • Age/Stage: Adult • Source Strain: ATCC, Manassas, VA • Source Substrain: CR-CLE
CHO Cell Culture Procedures: CHO cells were stably co-transfected with human CACNA1C (α1-subunit), CACNB2 (β2-subunit), and CACNA2D1 (α2δ-subunit) cDNAs. Stable transfectants were selected by coexpression of the cDNAs with antibiotic resistance genes for blasticidin, hygromycin, G418, and zeocin. Selection pressure was maintained by including these antibiotics in the culture medium. Cells were cultured in Ham's F12 Medium supplemented with 10% fetal bovine serum, penicillin-streptomycin (100 units/mL), blasticidin (10 μg/mL), zeocin (400 μg/mL), G418 (250 μg/mL) and hygromycin (250 μg/mL). To avoid Ca^2+-induced toxicity, verapamil (3 μmol/L) was added to the cultured cells.
hCav1.2/β2/α2δ-CHO is a tetracycline-inducible cell line. To induce expression, tetracycline at a final concentration of 1 μg/mL was added to media lacking the selection antibiotics. Currents were recorded greater than 16 hours post-induction.
Treatment Groups: All experiments were performed at room temperature. Each cell acted as its own control.
Each concentration was tested in at least three cells (n≥3).
Positive Control Group: The positive control article nifedipine (Sigma-Aldrich) was tested in two cells (n=2) at 0.1 μM. Previous results have shown that nifedipine at 0.1 μM inhibits hCav1.2 current by approximately 90%.
Electrophysiological Procedures: Cells were superfused with vehicle control solution. Micropipette solution for whole cell patch clamp recordings was composed of (mM): Cs-methanesulfonate (MES), 130; TEA-Cl, 20, MgCl2, 1; EGTA, 10; Mg-ATP, 4; Tris-GTP, 0.3, phosphocreatine di-(Tris) salt, 14, creatine phosphokinase, 50 U/mL, and HEPES, 10; pH adjusted to 7.2 with N-methyl-D-glucamine or CsOH. Micropipette solution was prepared in batches, aliquoted, stored frozen, and a fresh aliquot thawed each day. […] Before digitization, current records were low-pass filtered at one-fifth of the sampling frequency.
Experimental Procedures: Onset and steady inhibition was evaluated at a test potential of 0 mV (150 ms duration), repeated at ten-second intervals from a holding potential of −40 mV. Peak current was measured during the step to 0 mV. Peak current was monitored until a new steady state was achieved. hCav1.2 current was monitored until a new steady state was achieved and a steady state was maintained for at least 20 s before applying test article or positive control article formulations. […]
Nonlinear least squares fits were solved with the Solver add-in for Excel 2003 or later (Microsoft, Redmond, WA) and the IC50 was calculated.

SMILES | IC50 [1] [µM] | IC50 [2] [µM]
CC(C)COc1ccc(CNC(=O)N(Cc2ccc(F)cc2F)C2CCN(C)CC2)cc1 [Example 3, 1-[(2,4-difluorophenyl)methyl]-1-(1-methylpiperidin-4-yl)-3-{[4-(2-methylpropoxy)phenyl]methyl}urea] | 4.2 | 1.4
CC(C)Oc1ccc(CNC(=O)N(Cc2ccc(F)cc2F)C2CCN(C)CC2)cc1 [Example 5, 1-[(2,4-difluorophenyl)methyl]-1-(1-methylpiperidin-4-yl)-3-{[4-(propan-2-yloxy)phenyl]methyl}urea] | > 10 | 11.3
CN1CCC(N(Cc2ccc(F)cc2F)C(=O)NCc2ccc(OC3CC3)cc2)CC1 [Example 17, 3-[(4-cyclopropoxyphenyl)methyl]-1-[(2,4-difluorophenyl)methyl]-1-(1-methylpiperidin-4-yl)urea] | > 10 | 3.5
